Experiment: The binding affinity at 5-hydroxytryptamine 1D receptor was determined using [3H]5-CT

SMILES: COc1cccc2c1N1CCN(C)C[C@@H]1c1ccccc1C2 [(+)-65-Methoxy-2-methyl-1,2,3,4,9,13b-hexahydro-2,4a-diaza-tribenzo[a,c,e]cycloheptene]
- Ki: 1.47 µM
